Data taken from PubChem BioAssay (NCI).
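96-well plates; 48 h exposure; 5 concentrations. Endpoints by linear interpolation between flanking doses. Not reached: highest tested concentration assigned. GI50 is the concentration that inhibits growth by half. The concentration for full growth arrest is given as TGI.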

What was measured:
Test in all cases: inhibition of tumour cell growth, NCI panel, 48 h
SNB-19 CNS = system: SNB-19 CNS
A549 NSCLC = system: A549 NSCLC
UACC-257 melanoma = system: UACC-257 melanoma
HT29 colon = system: HT29 colon
KM12 colon = system: KM12 colon
MALME-3M melanoma = system: MALME-3M melanoma
OVCAR-3 ovarian = system: OVCAR-3 ovarian
DU-145 prostate = system: DU-145 prostate
T-47D breast = system: T-47D breast
HS 578T breast = system: HS 578T breast

Row | SMILES | TGI (SNB-19 CNS) [µM] | TGI (A549 NSCLC) [µM] | TGI (UACC-257 melanoma) [µM] | TGI (HT29 colon) [µM] | TGI (KM12 colon) [µM] | TGI (MALME-3M melanoma) [µM] | TGI (OVCAR-3 ovarian) [µM] | GI50 (DU-145 prostate) [µM] | TGI (DU-145 prostate) [µM] | GI50 (T-47D breast) [µM] | TGI (T-47D breast) [µM] | GI50 (SNB-19 CNS) [µM] | GI50 (A549 NSCLC) [µM] | GI50 (UACC-257 melanoma) [µM] | GI50 (HT29 colon) [µM] | GI50 (KM12 colon) [µM] | GI50 (MALME-3M melanoma) [µM] | GI50 (OVCAR-3 ovarian) [µM] | GI50 (HS 578T breast) [µM] | TGI (HS 578T breast) [µM]
1 | Clc1ccc(-c2c(C3=NCCN3)nnn2-c2ccccc2)cc1 | > 100 | > 100 | > 100 | > 100 | > 100 | > 100 | > 100 | – | – | – | – | – | – | – | – | – | – | – | – | –
2 | Clc1ccc2c(c1)C(N1CCNCC1)=Nc1ccccc1O2 | 12.8 | 16.9 | 2.87 | 4.19 | 3.28 | 3.5 | 10.4 | 4.18 | 15.4 | 1.91 | 4.58 | 2.97 | 4.5 | 1.5 | 1.72 | 1.73 | 1.75 | 2.8 | – | –
3 | COc1cc(C2c3cc4c(cc3[C@@H](N(C)C)[C@H]3COC(=O)C23)OCO4)cc(OC)c1O (some centres not stated) | – | > 100 | > 100 | > 100 | > 100 | > 100 | – | – | – | – | – | – | – | – | – | – | – | – | – | –
4 | COc1ccccc1NC(=O)C1=C(C)NC(C)=C(C(=O)Nc2ccccc2OC)C1c1ccc(N(C)C)cc1 | > 100 | > 100 | > 100 | > 100 | 56.9 | > 100 | 44.1 | – | – | – | – | – | – | – | – | – | – | – | – | –
5 | CCCCN(CCCC)CCc1c(C)cc(C)c(CCN(CCCC)CCCC)c1O | > 100 | > 100 | 7.44 | 13 | 21.2 | 11.3 | – | 3.76 | > 100 | – | – | 3.04 | 3 | 2.37 | 2.52 | 3.2 | 2.94 | – | 2.7 | 8.59
6 | COC(=O)c1ccc(C(=O)OC)c2nc3cc(C)ccc3nc12 | > 100 | > 100 | > 100 | > 100 | > 100 | > 100 | > 100 | – | – | – | – | – | – | – | – | – | – | – | – | –
7 | CN1C(=O)C2C=CC1C1CCC2N(C)C1=O (configuration not stated) | > 100 | > 100 | > 100 | > 100 | > 100 | > 100 | > 100 | – | – | – | – | – | – | – | – | – | – | – | – | –
8 | CC(/C=C/NNC1=NC(c2ccccc2)C(c2ccccc2)=NN1)Sc1ccccc1N (configuration not stated) | 25.1 | 28.7 | 19.9 | 23.9 | 21.8 | 20.9 | 22 | – | – | – | – | – | – | – | – | – | – | – | – | –
9 | COC(=O)C(=O)C(C(=O)C(N)=O)c1nc2ccc(C(=O)c3ccccc3)cc2[nH]c1=O (configuration not stated) | – | > 100 | > 100 | > 100 | > 100 | > 100 | > 100 | – | – | – | > 100 | – | – | – | – | – | – | – | – | > 100
10 | NC(=O)c1csc(C2CCC(CO)O2)n1 (configuration not stated) | > 100 | > 100 | > 100 | > 100 | > 100 | > 100 | > 100 | – | – | – | – | – | – | – | – | – | – | – | – | –
11 | S=P(N1CCCC1)(N1CC1)N1CC1 | > 100 | > 100 | > 100 | > 100 | > 100 | > 100 | > 100 | – | – | – | – | – | – | – | – | – | – | – | – | –
12 | CN1c2ccccc2S(=O)(=O)n2c(CCc3ccccc3)nnc21 | > 100 | > 100 | > 100 | > 100 | > 100 | – | > 100 | – | > 100 | – | > 100 | – | – | – | – | – | – | – | – | > 100
13 | CC[C@]1(O)C[C@@H]2CN(CCc3c([nH]c4ccccc34)[C@@](C(=O)OC)(c3cc4c(cc3OC)N(C)[C@H]3[C@@](O)(C(N)=O)[C@H](O)[C@]5(CC)[C@@H]6C[C@@H]6CN6CC[C@]43[C@@H]65)C2)C1 | > 33.3 | > 33.3 | > 33.3 | – | > 29.8 | 32.1 | 0.0818 | < 0.00333 | 0.795 | – | – | < 0.00333 | 0.0128 | > 33.3 | < 0.00333 | < 0.00333 | 4.9 | < 0.00333 | < 0.00333 | > 21.3
14 | Cc1cccc(N=C2NC(=O)C(CC(=O)Nc3ccc(C)cc3C)S2)c1 (configuration not stated) | > 100 | > 100 | > 100 | > 100 | – | > 100 | > 100 | – | – | – | – | – | – | – | – | – | – | – | – | –
15 | COc1ccc(/C=C\c2cc(OC)c(OC)c(OC)c2)c(NS(=O)(=O)c2ccc(Cl)cc2)c1O | > 100 | > 100 | 60.5 | 11.9 | 12.8 | – | 10.7 | 0.2 | > 100 | – | – | 0.807 | 0.27 | 14.2 | 2.76 | 0.127 | – | 0.0602 | 0.292 | 37
16 | O=c1cc(-c2ccccn2)[nH]c2cc(F)ccc12 | > 100 | > 100 | > 100 | > 100 | > 100 | > 100 | > 100 | – | – | – | – | – | – | – | – | – | – | – | – | –
17 | CC1(O)CCC2(C)C(=O)C1(C)CCC21OCCO1 (configuration not stated) | > 100 | > 100 | > 100 | > 100 | > 100 | > 100 | > 100 | – | – | – | – | – | – | – | – | – | – | – | – | –
18 | COC(=O)[C@H]1N[C@@H](C(=O)OC)C23CCC[C@H]2CC[C@]1(C(OC)OC)C3 | > 100 | > 100 | > 100 | > 100 | > 100 | > 100 | – | – | – | – | – | – | – | – | – | – | – | – | – | –
19 | Cc1c(C(=O)CC(=O)C(=O)Nc2cc(Cl)ccc2Cl)[n+](=O)c2ccccc2n1[O-] | > 100 | > 100 | > 100 | > 100 | > 100 | > 100 | 61 | – | – | – | – | – | – | – | – | – | – | – | – | –
20 | CC1=NOC(=O)C1N=Nc1ccc(Br)c(C)c1 (configuration not stated) | 92.8 | 46 | 35.4 | > 100 | 78 | 33.3 | 33.6 | – | – | – | – | – | – | – | – | – | – | – | – | –
21 | CCCCN(CC)c1ncnc2ccc(Br)cc12 | > 100 | 45.6 | – | – | 31.6 | 38.5 | 32.5 | 19.4 | 46.8 | 28.9 | > 100 | 35.2 | 13.9 | – | – | 15.3 | 19.1 | 15.8 | 13.1 | 35.9
22 | Nc1ccc(C(=O)CC2(O)C(=O)Nc3c(Cl)cc(Cl)cc32)cc1 (configuration not stated) | > 100 | > 100 | > 100 | > 100 | > 100 | > 100 | > 100 | – | – | – | – | – | – | – | – | – | – | – | – | –
23 | COC(=O)C(CC(=O)c1c[nH]c2ccccc12)c1c[nH]c2ccccc12 (configuration not stated) | – | 60.1 | 30.4 | 31.2 | > 10 | 52.3 | > 10 | – | – | – | – | – | – | – | – | – | – | – | – | –
